Here are results for eight compounds from US10751339B2, “Substituted aminopyrimidine compounds and methods of use” (SUNSHINE LAKE PHARMA CO., LTD., priority 2018, dated 2020).

Data set [1] can be described thus: Compound stability in rat liver microsomes. The class given is in vitro ADME. The following applies: for CLint scaled at 5 μM: liver microsomes, in vivo CLint extrapolated from rat liver microsome incubation; for CLint scaled at 5 μM / half-life at 5 μM: pH 7.4; for half-life at 5 μM: read-out: Rat T1/2. As for the experimental part:
(§1) Human or rat liver microsomes incubations were conducted in duplicate in polypropylene tubes. The typical incubation mixtures consisted of human or rat liver microsomes (0.5 mg protein/mL), compounds of interest (5 μM) and NADPH (1.0 mM) in a total volume of 200 μL potassium phosphate buffer (PBS, 100 mM, pH 7.4). Compounds were dissolved in DMSO and diluted with PBS such that the final concentration of DMSO was 0.05%. The enzymatic reactions were commenced with the addition of protein after a 3-min preincubation and incubated in a water bath open to the air at 37° C. Reactions were terminated at various time points (0, 5, 10, 15, 30, 60 min) by adding equal volume of ice-cold acetonitrile. The samples were stored at −80° C. until LC/MS/MS assays.
(§2) The concentrations of compounds in the incubation mixtures of human or rat liver microsomes were determined by a LC/MS/MS method. The ranges of the linearity in the concentration range were determined for each tested compounds.
(§3) A parallel incubation was performed using denatured microsomes as the negative control, and reactions were terminated at various time points (0, 15, 60 min) after incubation at 37° C.
(§4) Dextromethorphan (70 μM) was selected as the positive control, and reactions were terminated at various time points (0, 5, 10, 15, 30, 60 min) after incubation at 37° C. Both positive and negative control samples were included in each assay to ensure the integrity of the microsomal incubation system.
(§5) The concentrations of compounds in human or rat liver microsome incubations were plotted as a percentage of the relevant zero time point control for each reaction.

A short description of data set [2]: Compound stability in human liver microsomes. The class given is in vitro ADME. The conditions noted are these: pH 7.4; for CLint scaled at 5 μM: liver microsomes, in vivo CLint extrapolated from human liver microsome incubation; for half-life at 5 μM: human liver microsomes 0.5 mg protein/mL, compound 5 μM, NADPH, 37° C., read-out: Human T1/2. As for the experimental part: as §1, §2, §3, §4, §5

Data set [3] can be described thus: Pharmacokinetic profiles in rats. The class given is in vivo, rat. The conditions noted are these: for clearance / AUC(0-t) / half-life / Vd: iv dosing 1 mg/kg; for AUC(0-t) / half-life / Vd / bioavailability: rat, plasma; for Vd: read-out: Vss; for bioavailability: oral bioavailability. As to the method:
The compounds disclosed herein are assessed in pharmacokinetic studies in mice, rats, dogs or monkeys. The compounds are administered as a water solution, 2% HPMC+1% TWEEN®80 in water solution, 5% DMSO+5% solutol in saline, 4% MC suspension or capsule. For the intravenous administration, the animals are generally given at 1 or 2 mg/kg dose. For the oral (p.o.) dosing, mice and rats are generally given 5 or 10 mg/kg dose, and dogs and monkeys are generally given 10 mg/kg dose. The blood samples (0.3 mL) are drawn at 0.25, 0.5, 1.0, 2.0, 3.0, 4.0, 6.0, 8.0, 12 and 24 h time points or 0.083, 0.25, 0.5, 1.0, 2.0, 4.0, 6.0, 8.0 and 24 h time points and centrifuged at 3,000 or 4000 rpm for 2 to 10 min. The plasma solutions are collected, stored at −20° C. or −70° C. until analyzed by LC/MS/MS as described above.

Setting [4] is: rat liver microsomes 0.5 mg protein/mL, compound 5 μM, NADPH, 37° C.

What is called CLint scaled is the rate of metabolic loss divided by the concentration. As a reminder, the clearance is the volume of plasma or blood freed of the substance per unit of time. A higher clearance goes with efficient removal. Broadly, the AUC(0-t) is exposure summed from dosing to a finite time, without extrapolation to infinity. A low value points to low exposure. `Cc1nc(-c2c(N)ncnc2N[C@@H](C)c2nc3cccc(C#CCO)c3c(=O)n2-c2ccccc2)no1` [Example 38, (S)-2-(1-((6-amino-5-(5-methyl-1,2,4-oxadiazol-3-yl)pyrimidin-4-yl)amino)ethyl)-5-(3-hydroxyprop-1-yn-1-yl)-3-phenylquinazolin-4(3H)-one]: in data set [1], the CLint scaled at 5 μM is 52.7 mL/min/kg. In data set [1] (setting [4]), the half-life at 5 μM was 0.785 h. In data set [2], the CLint scaled at 5 μM was 40.4 mL/min/kg and the half-life at 5 μM amounted to 0.717 h. Besides, in data set [3], the clearance stood at 21.3 mL/min/kg, the AUC(0-t) came out at 790 ng·h/mL, the half-life was 0.76 h and the Vd amounted to 1.35 L/kg. In data set [3], the bioavailability stood at 40.4%.
`Cc1noc(-c2c(N)ncnc2N[C@@H](C)c2nc3cccc(C#CC(C)(C)O)c3c(=O)n2-c2ccccc2)n1` [Example 1, (S)-2-(1-((6-amino-5-(3-methyl-1,2,4-oxadiazol-5-yl)pyrimidin-4-yl)amino)ethyl)-5-(3-hydroxy-3-methylbut-1-yn-1-yl)-3-phenylquinazolin-4(3H)-one]: in data set [1], the intrinsic clearance (CLint scaled) at 5 μM is 2.5 mL/min/kg. Besides, in data set [1] (setting [4]), the half-life at 5 μM was found to be 16.3 h. In data set [2], the CLint scaled at 5 μM was 14.3 mL/min/kg and the half-life at 5 μM was 2.03 h. Besides, in data set [3], the clearance amounted to 9.17 mL/min/kg, the AUC(0-t) was 1440 ng·h/mL, the half-life is 3.24 h and the Vd is 2.38 L/kg. For the same compound, the bioavailability in data set [3] came to 120%.
For `Cc1nnc(-c2c(N)ncnc2N[C@@H](C)c2nc3cccc(C#CC(C)O)c3c(=O)n2-c2ccccc2)o1` (stereo partly drawn) [Example 7, 2-((S)-1-((6-amino-5-(5-methyl-1,3,4-oxadiazol-2-yl)pyrimidin-4-yl)amino)ethyl)-5-(3-hydroxybut-1-yn-1-yl)-3-phenylquinazolin-4(3H)-one], the CLint scaled at 5 μM in data set [1] was 15.3 mL/min/kg. Also, the half-life at 5 μM in data set [1] (setting [4]) was found to be 2.71 h. Moreover, in data set [2], the CLint scaled at 5 μM was 6.34 mL/min/kg and the half-life at 5 μM worked out at 4.57 h. Also, in data set [3], the clearance came out at 19.3 mL/min/kg, the AUC(0-t) was determined as 862 ng·h/mL, the half-life is 0.61 h and the Vd was determined as 0.61 L/kg. Further, the bioavailability in data set [3] is 38.3%.
Take `C[C@H](Nc1ncnc(N)c1-c1nnn(C)n1)c1nc2cccc(C#CC(C)(C)O)c2c(=O)n1-c1ccccc1` [Example 4, (S)-2-(1-((6-amino-5-(2-methyl-2H-tetrazol-5-yl)pyrimidin-4-yl)amino)ethyl)-5-(3-hydroxy-3-methylbut-1-yn-1-yl)-3-phenylquinazolin-4(3H)-one]: the intrinsic clearance (CLint scaled) at 5 μM in data set [1] was 5.58 mL/min/kg. Besides, in data set [1] (setting [4]), the half-life at 5 μM is 7.41 h. Further, in data set [2], the CLint scaled at 5 μM was 5.8 mL/min/kg and the half-life at 5 μM came to 5 h. In data set [3], the clearance was 8.33 mL/min/kg, the AUC(0-t) is 1870 ng·h/mL, the half-life was 1.87 h and the Vd was determined as 1.04 L/kg. Further, in data set [3], the bioavailability came to 134%.
Regarding `Cc1nc(-c2c(N)ncnc2N[C@@H](C)c2nc3cccc(C#CC(C)(C)O)c3c(=O)n2-c2ccccc2)no1` [Example 3, (S)-2-(1-((6-amino-5-(5-methyl-1,2,4-oxadiazol-3-yl)pyrimidin-4-yl)amino)ethyl)-5-(3-hydroxy-3-methylbut-1-yn-1-yl)-3-phenylquinazolin-4(3H)-one], in data set [1], the CLint scaled at 5 μM was 4.75 mL/min/kg. In data set [1] (setting [4]), the half-life at 5 μM is 8.72 h. In data set [2], the CLint scaled at 5 μM is 9.46 mL/min/kg and the half-life at 5 μM came to 3.06 h. Also, in data set [3], the clearance was determined as 13 mL/min/kg, the area under the curve AUC(0-t) was found to be 1210 ng·h/mL, the half-life is 1.76 h and the bioavailability was found to be 146%.
Turning to `C#Cc1cccc2nc([C@H](C)Nc3ncnc(N)c3-c3nnn(C)n3)n(C3CC3)c(=O)c12` [Example 52, (S)-2-(1-((6-amino-5-(2-methyl-2H-tetrazol-5-yl)pyrimidin-4-yl)amino)ethyl)-3-cyclopropyl-5-ethynylquinazolin-4(3H)-one], the CLint scaled at 5 μM in data set [1] is 79.8 mL/min/kg. Also, in data set [1] (setting [4]), the half-life at 5 μM was 0.519 h. In addition, in data set [2], the CLint scaled at 5 μM was 89.4 mL/min/kg and the half-life at 5 μM turned out to be 0.324 h. In data set [3], the clearance worked out at 23 mL/min/kg, the AUC(0-t) was 722 ng·h/mL, the half-life is 0.73 h and the Vd is 1.11 L/kg. Also, the bioavailability in data set [3] came to 70.8%.
With `Cc1nnc(-c2c(N)ncnc2N[C@@H](C)c2nc3cccc(C#CC(C)(C)O)c3c(=O)n2-c2ccccc2)o1` [Example 2, (S)-2-(1-((6-amino-5-(5-methyl-1,3,4-oxadiazol-2-yl)pyrimidin-4-yl)amino)ethyl)-5-(3-hydroxy-3-methylbut-1-yn-1-yl)-3-phenylquinazolin-4(3H)-one], the “Rat T1/2” value in data set [1] (setting [4]) is “∞”. Besides, in data set [2], the CLint scaled at 5 μM is 3.84 mL/min/kg and the half-life at 5 μM was found to be 7.54 h. In data set [3], the clearance was 11.3 mL/min/kg, the area under the curve AUC(0-t) was 1370 ng·h/mL, the half-life is 1.42 h and the Vd was determined as 1.3 L/kg. In addition, in data set [3], the bioavailability was found to be 106%.
With `CC#Cc1cccc2nc([C@H](C)Nc3ncnc(N)c3-c3nnc(C)o3)n(C3CC3)c(=O)c12` [Example 22], the CLint scaled at 5 μM in data set [1] was 41.8 mL/min/kg. In addition, in data set [1] (setting [4]), the half-life at 5 μM came out at 0.991 h. In data set [2], the CLint scaled at 5 μM was 62.5 mL/min/kg and the half-life at 5 μM came out at 0.464 h. Further, in data set [3], the clearance is 25.3 mL/min/kg, the AUC(0-t) was determined as 675 ng·h/mL, the half-life is 0.97 h and the Vd stood at 1.83 L/kg. Besides, the bioavailability in data set [3] came out at 83.7%.
